Reference: ChEMBL document CHEMBL1146625, “The kinetics of binding to p38MAP kinase by analogues of BIRB 796” (Bioorg Med Chem Lett, 2003)

Tests used:
[1] = molecular target: T1, Mitogen-activated protein kinase 14 (Homo sapiens, UniProt Q16539); assay: Binding affinity for Mitogen-activated protein kinase p38 alpha
[2] = molecular target: T1, Mitogen-activated protein kinase 14
Description: Rate of dissociation from Mitogen-activated protein kinase p38 alpha

[3] = molecular target: T1, Mitogen-activated protein kinase 14; remark: listed apart in the source
Description: Rate of association to Mitogen-activated protein kinase p38 alpha

T1 sequence (Q16539 whole entry): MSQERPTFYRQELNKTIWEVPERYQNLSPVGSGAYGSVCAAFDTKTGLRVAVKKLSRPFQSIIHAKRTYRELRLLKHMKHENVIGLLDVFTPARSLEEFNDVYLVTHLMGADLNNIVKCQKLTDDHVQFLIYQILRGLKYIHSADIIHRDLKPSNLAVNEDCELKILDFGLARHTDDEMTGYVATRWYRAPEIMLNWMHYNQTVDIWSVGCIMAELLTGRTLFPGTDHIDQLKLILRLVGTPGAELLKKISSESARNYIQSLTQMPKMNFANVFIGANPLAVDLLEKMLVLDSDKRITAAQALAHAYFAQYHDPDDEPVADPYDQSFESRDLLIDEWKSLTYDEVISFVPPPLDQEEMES

SMILES	Kd [1]	k off [2]	k on [3]
Cc1ccc(-n2nc(C(C)(C)C)cc2NC(=O)Nc2ccc(OCCN3CCOCC3)c3ccccc23)cc1CN(C)C	4.8 nM	–	–
Cc1ccc(-n2nc(C(C)(C)C)cc2NC(=O)Nc2cccc3ccccc23)cc1	1.1 nM	–	–
Cc1ccc(-n2nc(C(C)(C)CO)cc2NC(=O)Nc2ccc(OCCN3CCOCC3)c3ccccc23)cc1	16 nM	–	–
Cc1ccc(-n2nc(C(C)(C)C)cc2NC(=O)Nc2ccccc2)cc1	22 nM	–	–
Cc1ccc(-n2nc(C(C)(C)C)cc2NC(=O)Nc2ccc(OCCN3CCOCC3)c3ccccc23)cc1C(=O)O	2.5 nM	6.2e-05 s⁻¹	25200 M⁻¹ s⁻¹
Cc1ccc(-n2nc(C(C)(C)C)cc2NC(=O)Nc2ccc(OCCN3CCOCC3)c3ccccc23)cn1	1.1 nM	–	–
COc1cc(NC(=O)Nc2cc(C(C)(C)C)nn2-c2ccc(C)cc2)c2ccccc2c1	9.4 nM	–	–
Cc1ccc(-n2nc(C(C)(C)C)cc2NC(=O)Nc2ccc(OCCN3CCOCC3)cc2)cc1	–	0.0039 s⁻¹	13000 M⁻¹ s⁻¹
CN(C)Cc1cccc(-n2nc(C(C)(C)C)cc2NC(=O)Nc2ccc(OCCN3CCOCC3)c3ccccc23)c1	16 nM	–	–
COc1cc(NC(=O)Nc2cc(C(C)(C)C)nn2-c2ccc(C)cc2)c2ccccc2c1OCCN1CCOCC1	14 nM	–	–
Cn1nc(C(C)(C)C)cc1NC(=O)Nc1ccc(OCCN2CCOCC2)c2ccccc12	23 nM	–	–
CC(C)c1cc(NC(=O)Nc2ccc(OCCN3CCOCC3)c3ccccc23)n(-c2ccccc2)n1	5.9 nM	–	–
O=C(Nc1ccc(OCCN2CCOCC2)c2ccccc12)Nc1ccnn1-c1ccccc1	2000 nM	–	–
CC(C)(C)c1cc(NC(=O)Nc2ccc(OCCN3CCOCC3)c3ccccc23)n(-c2ccccc2)n1	0.097 nM	–	–
Cc1ccc(-n2nc(C(C)(C)C)cc2NC(=O)Nc2ccc(CCCN3CCOCC3)c3ccccc23)cc1	1.2 nM	–	–
